Experiments:
[1] = test system: primary neonatal fibroblast cells; assay: Morphological analysis through optical microscopy visualization; format: cell-based, human; conditions: concentrations of up to 1.0 mg/ml
telomerase = assay: Relative telomerase activity (Q-TRAP); format: cell-based, human
Protocol: The quantitative polymerase chain reaction (PCR)-based telomeric repeat amplification protocol (Q-TRAP) is a sensitive and accurate PCR-based assay that enables the measurement of telomerase activity. Cellular pellets from neonatal fibroblast cells were lysed using the CHAPS (3-cholamidopropyl dimethylammonio 1-propanesulfonate) lysis buffer for protein extraction. Samples were stored at 4° C. and were used within 24 hours. Protein quantification was performed for each sample using Biorad protein assay (Bio-Rad Kit 50000002). A minimum of 0.3 mg/ml protein concentration was required to proceed with the analysis of the samples. Telomerase protein extracts are then incubated at 27° C. for 30 min to allow the telomerase in the protein extracts to elongate the TS primer by adding TTAGGG repeat sequences. Following the enzymatic reaction, telomerase extension products are then amplified and quantified by real-time qPCR using SYBR Green (a green fluorescent cyanine dye). PCR was initiated at 95° C. for 10 min, followed by a 40-cycle amplification (95° C. for 15 s, 60° C. for 60 s) and a melt curve stage step. Reactions were monitored and analyzed with QuantStudio 5 (Applied Biosystems). Telomerase activity in cell lines or samples is calculated based on the threshold cycle (Ct). All samples were run in triplicate.
The telomerase-positive standard dilution series is plotted against the telomere protein concentration (r^2>0.9) as a standard curve of Ct values. The standard curve is generated by graphing threshold cycles (Ct values) of HeLa cell line standards against log of 1000, 333, 111, 37.03, 12.34, 4.11, 1.37 and 0.45 ng of protein (whole cell extract).

[2] = test system: primary neonatal fibroblast cells; assay: MTT assay, cytotoxicity of ergothioneine; format: cell-based, human; conditions: all concentrations tested (0.04, 0.1, 0.3, and 1.0 mg/ml); 72 hours and one week; with and without 10 μM H2O2
Protocol: (§1) Primary cultures of human neonatal dermal fibroblasts (ATCC® PCS-201-010™) were established under standard culture conditions. Cells were seeded at 3×10^3 cells/cm^2 and were grown and maintained in Fibroblast Medium (Innoprot).
The MTT assay is a colorimetric assay that uses a yellow tetrazolium salt (3-(4,5-dimethylthiazol-2-yl)-2,5-diphenyltetrazolium bromide, or MTT) to measure metabolic activity of cells as a proxy for cell viability. MTT reduction rate is an indicator of the functional integrity of the mitochondria and as a result, of cellular viability. To determine the cytotoxicity of ergothioneine on primary neonatal fibroblast cells, the cells were seeded in 96 well plates (Nunc) at 0.35×10^4 cells/plate and 0.5×10^4 cells/plate for 72 hours and 1-week treatment. After 24 hours from seeding, the cells were washed once with phosphate-buffered saline (PBS) and treated with the respective compounds in cell culture media. Ergothioneine was dissolved in dimethyl sulfoxide (DMSO). […] Each condition was tested in triplicates with and without 10 μM H2O2. For positive and negative controls, 8 mM methyl methane sulfonate (MMS) and DMSO 100% were used, respectively. […] Absorbance was measured using an Envision multiplate reader at a wavelength of 570 nm.
The percentage of cell death was calculated using the following equation: […]

[3] = ingested; rats; cited from earlier work
[4] = test system: human neonatal dermal fibroblasts; assay: Telomere length measurement by Telomere Analysis Technology (TAT, HT Q-FISH); format: cell-based; conditions: for proportion of short telomeres (<3 kbp): control 8.1±0.6
Protocol: as §1
(§2) Primary cultures of neonatal human fibroblast cells were established. Cells were seeded at 5×10^3 cells/cm^2), in Fibroblast Medium (Innoprot). Media was renewed every 2 to 3 days and cells were passaged at sub-confluence (70-80%) every 7 days. Cells were expanded during eight weeks under standard and oxidative (10 μM H2O2) cell culture condition as described previously. Different concentrations of ergothioneine (0.04, 0.3, 0.1, and 1.0 mg/ml) or vehicle control were added to the treated or control cells, respectively. Treatment dilutions were prepared fresh in each passage with fresh media. Cell growth was monitored for each condition by counting cell numbers at each passage using a Countess™ cell counter (Invitrogen). Population doubling (PD) was calculated with the formula PD=3.322(Log(Cf)−Log (Ci))+X (where, Cf: Final concentration; Ci: initial concentration; X: PD last passage). One PD is equivalent to one round of cell replication.
(§3) Each treatment was tested in triplicate and in different plates. Each plate contained a control sample. Frozen vials were obtained at different time points for analysis of relative telomerase activity and telomere length.
All telomere length measurements were performed using Life Length's proprietary Telomere Analysis Technology (TAT®). TAT® measures telomere length using a high-throughput (HT) Q-FISH (quantitative fluorescent in situ hybridization) technique as previously described. This method is based on a quantitative fluorescence in-situ hybridization method modified for measuring individual chromosomes of cells in interphase. In brief, telomeres are hybridized with a fluorescent Peptide Nucleic Acid probe (PNA) that recognizes three telomere repeats (sequence: Alexa488-OO-CCCTAACCCTAACCCTAA, purchased from Panagene). The images of the nuclei and telomeres are captured by a high-content screen system. The intensity of the fluorescent signal from the telomeric PNA probes that hybridize to a given telomere is proportional to the length of that telomere. The intensities of fluorescence are translated to base pairs (bp) through a standard regression curve which is generated using control cell lines with known telomere length. TAT® not only measures telomere length in absolute base pair units, it also provides an assessment of the distribution, 50th and 20th percentiles of telomere length and the percent of short telomeres, allowing for a more comprehensive analysis of each sample. All samples are run in quintuplicate.
Results obtained from each treatment and at each time point were compared with the appropriate control group using Student's t test (independent samples t-test).

[5] = humans, supplementation for 7 days, cited from earlier work
[6] = test system: neonatal human fibroblast cells; assay: Proliferative analysis (population doubling, growth curves); format: cell-based
Protocol: as §2, §3

Structure (SMILES): C[N+](C)(C)[C@@H](Cc1c[nH]c(=S)[nH]1)C(=O)[O-] [ergothioneine]
- deleterious effects by morphological analysis [1]: did not produce any deleterious effects
- telomerase activity vs control cells (telomerase; 6 hours, all dose levels): significantly lower
- telomerase activity, higher compared with control cells (telomerase; 24 hours, all dose levels, p<0.05): 50-90%
- telomerase activity vs control (telomerase; 48 hours, statistically significant only for 0.04 mg/ml and 1.0 mg/ml): still elevated
- telomerase activity vs control (telomerase; 72 hours): not significantly different
- cell death [2]: < 20%
- whole-body half-life [3]: 1 month
- effect on telomeres (FIG. 7D) ([4]; dose of 0.3 mg/ml): telomere lengthening
- median telomere length vs control ([4]; oxidative conditions (10 μM H2O2), Week 4, 0.1 or 1.0 mg/ml, p<0.05): higher median telomere length
- median telomere length ([4]; oxidative conditions (10 μM H2O2), Week 8, 0.04 mg/ml, control 8725±94): 9015±112 bp
- median telomere length ([4]; oxidative conditions (10 μM H2O2), Week 8, 0.1 mg/ml, control 8725±94): 8794±212 bp
- median telomere length ([4]; oxidative conditions (10 μM H2O2), Week 8, 0.3 mg/ml, control 8725±94 bp, in bp): 9068±24
- median telomere length ([4]; oxidative conditions (10 μM H2O2), Week 8, 1.0 mg/ml, control 8725±94): 8997±171 bp
- 20th percentile telomere length vs control ([4]; oxidative conditions, Week 4, 0.1, 0.3, or 1.0 mg/ml, p<0.05): greater telomere length
- reduction of telomere shortening rate ([4]; oxidative conditions, Week 4, all concentrations, significant for 0.04, 0.1 and 1.0 mg/ml): 27-52%
- percentage of short telomeres (<3 kbp) vs control ([4]; oxidative conditions, Week 4 and Week 8, all concentrations): reduced the percentage of short telomeres
- 20th percentile telomere length vs control ([4]; oxidative conditions, Week 8, all concentrations): significant increases
- telomere shortening rate vs control ([4]; oxidative conditions, Week 8, did not reach statistical significance): appeared to be lower
- 20th percentile telomere length vs control ([4]; standard conditions, Week 4, 0.3 mg/ml or 1.0 mg/ml): greater
- proportion of short telomeres (<3 kbp) ([4]; standard conditions, Week 4, 0.3 mg/ml): 7.3±1.1%
- median telomere length ([4]; standard conditions, Week 4, 0.3 mg/ml, control 9378±107): 9637±340 bp
- proportion of short telomeres (<3 kbp) ([4]; standard conditions, Week 4, 1.0 mg/ml): 6.8±1.0%
- median telomere length ([4]; standard conditions, Week 4, 1.0 mg/ml, control 9378±107): 9745±206 bp
- telomere shortening rate vs control ([4]; standard conditions, Week 4, 1.0 mg/ml, p=0.09): trend for decreased telomere shortening rate
- telomere shortening rate vs control ([4]; standard conditions, Week 4, 0.1 or 0.3 mg/ml, normalized by population doublings): significantly lower
- protective effects on telomeres seen at Week 4 ([4]; standard conditions, Week 8): no longer present
- concentration in whole blood ([5]; approximately): 30 to 40 µM
- concentration in plasma [5]: approximately 3 μM
- proliferative capacity vs control ([6]; oxidative culture conditions (10 μM H2O2), 1.0 or 0.3 mg/ml, after Week 4): increase in their proliferative capacity
- proliferative capacity vs control ([6]; standard culture conditions, 0.04-1.0 mg/ml, 8 weeks): no differences

— US20220387392A1, “METHODS AND COMPOSITIONS RELATED TO THE USE OF ERGOTHIONEINE” (priority 2020, published 2022)
